System: Akt phosphorylation in mature adipocytes
Assay: Measurement of insulin sensitivity (Ser473 Akt phosphorylation, immunoelectrophoresis)
Assay type: cell-based, human
Conditions: insulin 10 nM, 15 to 30 minutes; freshly isolated adipocytes (2D) and adipocytes kept 48 h in hydrogel (3D)
Protocol: The mature adipocytes are isolated by collagenase treatment of human adipose tissue. The subcutaneous human adipose tissue of young women (<45 years) who are not obese (BMI<30) is cut up in digestion medium (DMEM, 2% essentially fatty acid free albumin (A6003, Sigma, St Louis, […]., USA), 1 mg/ml collagenase A (Roche Diagnostics, Mannheim, Germany)) in the proportion of 1 g of tissue per 2 ml of digestion medium in polypropylene tubes. The tubes are placed at 37° C. for […] with agitation (200 cycles/minute). After digestion, the medium is filtered through woven cotton gauze. The mature adipocytes are left to decant by floating for 5 minutes and are then washed 3 times with 5 volumes of 10% sucrose. At the end of the final wash, the sucrose is removed and the mature adipocytes are ready to be incorporated into the PuraMatrix™ hydrogel.
The wells containing the hydrogel/adipocytes deprived of insulin the day before are incubated with the incubation medium (150 μl) (DMEM/F12 and 10 nM insulin). The plates are then placed in the incubator for 15 to 30 minutes. […] The signals are detected by chemiluminescence (Detection ECL, GE Healthcare) and quantified by densitometry.

Insulin: major anabolic hormone
Akt phosphorylation (Ser473): stimulates

Reference: patent publication US20130183706A1, “Method for Culturing Adipocytes” (ASSISTANCE PUBLIQUE-HOPITAUX DE PARIS, priority 2010, published 2013)
